These results are taken from patent EP4678638A1, “NEW E3 UBIQUITIN LIGASE LIGAND, PROTEIN DEGRADATION AGENT AND USE THEREOF” (priority 2023, dated 2024).

The subject of one assay is LNcap. The assay is described as follows: CCK-8 proliferation, LNcap. Format: cell-based. The following applies: Homo sapiens. On the procedure:
(§1) The tumor cells used herein were cultured in a cell culture medium listed in table A1 at 37°C in an incubator with 5% CO2. Prior to experimentation, all cell lines used were correctly identified by STR profiling, and tested negative for mycoplasma contamination using a mycoplasma detection kit through routine screenings. Table A1. Tumor cells and cell culture medium used in the present disclosure
(§2) IC50 values of the compounds of the present disclosure (including the compounds in Table 1, and compounds of examples) were measured using the Meilun Cell Counting Kit-8 kit from Dalian Meilun Biotech Co., Ltd. Assay details are as follows: tumor cells were seeded in a 96-well plate at a density listed in Table A2. After 24h, 100 µL of the inoculated cells were treated with 0.5µL of the compounds of the present disclosure (including the compounds in Tables 1 and 2, and compounds of examples) at 10 different successively decreasing concentrations (starting at the highest concentration of 10µM; 5-fold serial dilutions). After the cells were treated with the compounds of the present disclosure for a period of time, the cell viability detection reagent was added to the culture medium for cell viability assessment according to the instructions provided with the CCK-8 kit. […] The growth inhibition of the compounds of the present disclosure on cells was plotted by Prism Graphpad software, and the IC50 values of the compounds of the present disclosure were calculated therefrom. […] Seeding protocol and treatment time for tumor cells

The subject of the next assay is SW620. Kind of assay: CCK-8 proliferation, SW620. Format: cell-based. The following applies: Homo sapiens, SW-620; CCK-8; 96 hours; read-out: Inhibitory activity (IC50) on tumor cell proliferation, SW620. In outline:
(§3)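 Cells seeded, then after 24 h treated with 10 concentrations (top 10 µM, 5-fold serial dilution) for a line-specific time at 37°C, 5% CO2. Viability read by CCK-8; IC50 fitted from growth-inhibition curves.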

In another assay the test system is CCRF-CEM. The assay is described as follows: CCK-8 proliferation, CCRF-CEM. Format: cell-based, Human. The following applies: Homo sapiens; Table B10, compounds designed based on the IRAK4 inhibitors; CCRF-CEM cells; read-out: Inhibitory activity (IC50, nM) on tumor cell proliferation, CCRF-CEM. An outline of the steps: as §3
The next assay concerns Jurkat. Kind of assay: CCK-8 proliferation, Jurkat. Format: cell-based, Human. The following applies: Table B10, compounds designed based on the IRAK4 inhibitors, Jurkat cells, read-out: Inhibitory activity (IC50, nM) on tumor cell proliferation, Jurkat. In outline: as §3
For the next assay, the system named is MV-4-11. The assay is described as follows: CCK-8 proliferation, MV-4-11. Particulars: Homo sapiens, MV4-11; Table B10, compounds designed based on the IRAK4 inhibitors; MV-4-11 cells; read-out: Inhibitory activity (IC50, nM) on tumor cell proliferation, MV-4-11. Format: cell-based, Human. An outline of the steps: as §3
The test system of the next assay is SR. Kind of assay: CCK-8 proliferation, SR. Format: cell-based, Human. The following applies: Table B10, compounds designed based on the IRAK4 inhibitors, SR cells, read-out: Inhibitory activity (IC50, nM) on tumor cell proliferation, SR. In outline:
as §3

A further assay addresses T1, IRAK4 (Homo sapiens, UniProt Q9NWZ3).
T1 construct: evaluate the effects of the compounds of the present disclosure on the expression of target proteins in cells; endogenous in cells; host or cells: hPBMC
T1 sequence (Q9NWZ3 1-460): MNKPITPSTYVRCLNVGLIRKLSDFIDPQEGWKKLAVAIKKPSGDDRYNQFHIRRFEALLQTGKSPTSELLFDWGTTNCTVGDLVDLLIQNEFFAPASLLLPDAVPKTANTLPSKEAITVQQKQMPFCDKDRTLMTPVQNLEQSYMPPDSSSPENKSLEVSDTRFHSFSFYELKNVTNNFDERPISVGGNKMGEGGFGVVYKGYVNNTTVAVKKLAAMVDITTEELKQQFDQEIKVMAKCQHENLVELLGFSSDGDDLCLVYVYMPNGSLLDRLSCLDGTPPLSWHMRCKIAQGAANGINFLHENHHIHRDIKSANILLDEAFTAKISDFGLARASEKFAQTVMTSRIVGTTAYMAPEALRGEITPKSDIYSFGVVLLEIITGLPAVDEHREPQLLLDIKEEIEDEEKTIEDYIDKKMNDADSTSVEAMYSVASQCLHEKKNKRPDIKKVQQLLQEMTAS
The assay is described as follows: Western blot degradation of IRAK4 (hPBMC). Format: cell-based. Particulars: Table D1. An outline of the steps:
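Quantification by ImageJ densitometry of Western blot bands: DC50 is the fitted concentration halving band intensity relative to DMSO. Percent remaining uses internal-control normalization, and degradation rate is its complement.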

For the next assay, the system named is MM.1S. The assay is described as follows: CCK-8 proliferation, MM.1S. Format: cell-based. Particulars: Table B10, compounds designed based on the IRAK4 inhibitors, MM.1S cells, read-out: Inhibitory activity (IC50, nM) on tumor cell proliferation, MM.1S. An outline of the steps: as §3
The test system of another assay is H1299. The assay is described as follows: CCK-8 proliferation, H1299. More on the design: species or system Human. Particulars: Table B10, compounds designed based on the IRAK4 inhibitors, H1299 cells, read-out: Inhibitory activity (IC50, nM) on tumor cell proliferation, H1299. How it is done: as §1, §2
The test system of a further assay is MGC-803. Kind of assay: CCK-8 proliferation, MGC-803 (heads: MGC80-3, MGC803). Format: cell-based, Human. Particulars: Table B10, compounds designed based on the IRAK4 inhibitors, MGC803 cells, read-out: Inhibitory activity (IC50, nM) on tumor cell proliferation, MGC803. On the procedure:
as §1, §2

In the next assay the test system is DU-145. Kind of assay: CCK-8 proliferation, DU-145. The following applies: Homo sapiens, 96 hours, read-out: Inhibitory activity (IC50) on tumor cell proliferation, DU-145. Format: cell-based. On the procedure: as §1, §2
Where [1] appears, read: Table B10, compounds designed based on the IRAK4 inhibitors, Lncap cells, read-out: Inhibitory activity (IC50, nM) on tumor cell proliferation, Lncap.

The structures appear in SMILES notation. Where two headings read alike, the source gives them in different places.

As for `CN(Cc1ccc(C2CCC(=O)NC2=O)c(F)c1)C1CCN(c2ncc(C(=O)Nc3ccc(OC(F)(F)Cl)cc3)cc2-c2cc[nH]n2)CC1` (centres unmarked) [GT-04027, N-(4-(chlorodifluoromethoxy)phenyl)-6-(4-((4-(2,6-dioxopiperidin-3-yl)-3-fluorobenzyl)(methyl)amino)piperidin-1-yl)-5-(1H-pyrazol-3-yl)nicotinamide], the IC50 fell in the range of 100 to 500 nM with LNcap (LNCaP, CCK-8, 96 hours, read-out: Inhibitory activity (IC50) on tumor cell proliferation, Lncap) and 100 to 500 nM in the assay on SW620.
For `CC(C)Nc1cc(-n2ccc3cc(C#N)cnc32)ncc1C(=O)NC1CCN(Cc2ccc(C3CCC(=O)NC3=O)cc2)CC1` (centres unmarked) [GT-04042, 6-(5-cyano-1H-pyrrolo[2,3-b]pyridin-1-yl)-N-(1-(4-(2,6-dioxopiperidin-3-yl)benzyl)piperidin-4-yl)-4-(isopropylamino)nicotinamide], the IC50 in the assay with LNcap (setting [1]), in the assay on CCRF-CEM, in the assay on Jurkat (Homo sapiens), in the assay with MV-4-11 and in the assay with SR (Homo sapiens) was 500 to 1000 nM in each case.
Turning to `CC(C)Nc1cc(-n2ccc3cc(C#N)cnc32)ncc1C(=O)NC1CCN(Cc2ccc(C3CCC(=O)NC3=O)c(F)c2)CC1` (centres unmarked) [GT-04043, 6-(5-cyano-1H-pyrrolo[2,3-b]pyridin-1-yl)-N-(1-(4-(2,6-dioxopiperidin-3-yl)-3-fluorobenzyl)piperidin-4-yl)-4-(isopropylamino)nicotinamide], the IC50 with LNcap (setting [1]) was 500 to 1000 nM; in the assay with CCRF-CEM, 500 to 1000 nM; in the assay on Jurkat (Homo sapiens) it was 100 to 500 nM; in the assay with MV-4-11, 500 to 1000 nM; in the assay with SR (Homo sapiens), 500 to 1000 nM.
For the compound `O=C1CCC(c2ccc(CN3CCC(n4cc(NC(=O)c5coc(-c6ccnc(NCC7CC7)c6)n5)c(C(F)F)n4)CC3)cc2)C(=O)N1` (centres unmarked) [GT-04175, 2-(2-((cyclopropylmethyl)amino)pyridin-4-yl)-N-(3-(difluoromethyl)-1-(1-(4-(2,6-dioxopiperidin-3-yl)benzyl)piperidin-4-yl)-1H-pyrazol-4-yl)oxazole-4-carboxamide], the IC50 with LNcap (setting [1]) lay in the range of 100 to 500 nM; in the assay on CCRF-CEM, 500 to 1000 nM; in the assay on Jurkat (Homo sapiens) it was 100 to 500 nM; with MV-4-11, 500 to 1000 nM. Also, the “Degradation of substrate protein IRAK4 (substrate protein remaining %)” value (from here on “Degradation … (substrate protein remaining %)”) on IRAK4 was “A (A is defined as 0% ≤ substrate protein remaining % ≤ 80%)”.
As to `O=C1CCC(c2ccc(CN3CCN(c4ccc(-n5cc(NC(=O)c6coc(-c7ccnc(NCC(F)(F)F)c7)n6)c(C(F)F)n5)cc4)CC3)cc2F)C(=O)N1` (centres unmarked) [GT-04274, N-(3-(difluoromethyl)-1-(4-(4-(4-(2,6-dioxopiperidin-3-yl)-3-fluorobenzyl)piperazin-1-yl)phenyl)-1H-pyrazol-4-yl)-2-(2-((2,2,2-trifluoroethyl)amino)pyridin-4-yl)oxazole-4-carboxamide], the IC50 was 100 to 500 nM in the assay on LNcap (setting [1]); 500 to 1000 nM in the assay with CCRF-CEM; 500 to 1000 nM in the assay on Jurkat (Homo sapiens); 100 to 500 nM in the assay with MM.1S (Homo sapiens, MM1.S). Further, the “Degradation … (substrate protein remaining %)” value on IRAK4 is listed as “A (A is defined as 0% ≤ substrate protein remaining % ≤ 80%)”.
With `O=C1CCN(c2ccc(CN3CCC(n4cc(NC(=O)c5coc(-c6ccnc(NCC7CC7)c6)n5)c(C(F)F)n4)CC3)cn2)C(=O)N1` [GT-04959, 2-(2-((cyclopropylmethyl)amino)pyridin-4-yl)-N-(3-(difluoromethyl)-1-(1-((6-(2,4-dioxotetrahydropyrimidin-1(2H)-yl)pyridin-3-yl)methyl)piperidin-4-yl)-1H-pyrazol-4-yl)oxazole-4-carboxamide], the IC50 with MM.1S (Homo sapiens, MM1.S) was 500 to 1000 nM; with H1299 (Homo sapiens, NCI-H1299), 500 to 1000 nM.
For `O=C1CCN(c2cccc(CN3CCN(c4ccc(-n5cc(NC(=O)c6coc(-c7ccnc(NCC8CC8)c7)n6)c(C(F)F)n5)cc4)CC3)c2)C(=O)N1` [GT-04968, 2-(2-((cyclopropylmethyl)amino)pyridin-4-yl)-N-(3-(difluoromethyl)-1-(4-(4-(3-(2,4-dioxotetrahydropyrimidin-1(2H)-yl)benzyl)piperazin-1-yl)phenyl)-1H-pyrazol-4-yl)oxazole-4-carboxamide], the IC50 with MGC-803 (Homo sapiens, MGC-803) lay within 100 to 500 nM; in the assay on Jurkat (Homo sapiens) it was 100 to 500 nM; in the assay with MM.1S (Homo sapiens, MM1.S) it was 10 to 50 nM; in the assay with SR (Homo sapiens) it was 100 to 500 nM; in the assay on H1299 (Homo sapiens, NCI-H1299), 100 to 500 nM. For the same compound, the “Degradation … (substrate protein remaining %)” value on IRAK4 is given as “A (A is defined as 0% ≤ substrate protein remaining % ≤ 80%)”.
As for `O=C1CCN(c2ccc(CN3CCN(c4ccc5c(c4)nc(NC(=O)c4cccc(C(F)(F)F)c4)n5[C@H]4CC[C@@H](CO)CC4)CC3)cn2)C(=O)N1` [GT-04987, N-(5-(4-((6-(2,4-dioxotetrahydropyrimidin-1(2H)-yl)pyridin-3-yl)methyl)piperazin-1-yl)-1-((1s,4s)-4-(hydroxymethyl)cyclohexyl) -1H-benzo[d]imidazol-2-yl)-3-(trifluoromethyl)benzamide], the IC50 with MGC-803, with Jurkat, in the assay with MM.1S, in the assay on SR and with H1299 was 100 to 500 nM in each case.
For the compound `O=C1CCN(c2ccc(COc3ccc(Cl)cc3-c3nc4cc(C(F)(F)F)cc(Cl)c4[nH]3)cc2)C(=O)N1` [GT-06479, 1-(4-((4-chloro-2-(7-chloro-5-(trifluoromethyl)-1H-benzo[d]imidazol-2-yl)phenoxy)methyl)phenyl)dihydropyrimidine-2,4(1H,3H)-dione], the IC50 with DU-145 fell in the range of 100 to 500 nM.
As for `O=C1CCN(c2cccc(COc3ccc(Cl)cc3-c3nc4cc(C(F)(F)F)cc(Cl)c4[nH]3)c2)C(=O)N1` [GT-06480, 1-(3-((4-chloro-2-(7-chloro-5-(trifluoromethyl)-1H-benzo[d]imidazol-2-yl)phenoxy)methyl)phenyl)dihydropyrimidine-2,4(1H,3H)-dione], the IC50 in the assay on DU-145 fell in the range of 100 to 500 nM.
With `O=C1CCN(c2ccc(COc3ccc(Cl)cc3-c3nc4cc(C(F)(F)F)cc(Cl)c4[nH]3)cn2)C(=O)N1` [GT-06481, 1-(5-((4-chloro-2-(7-chloro-5-(trifluoromethyl)-1H-benzo[d]imidazol-2-yl)phenoxy)methyl)pyridin-2-yl)dihydropyrimidine-2,4(1H,3H)-dione], in the assay on DU-145, the IC50 lay within 50 to 100 nM.
